Experimental data reported in PubChem BioAssay AID588673 (Johns Hopkins Ion Channel Center, 2011).
Activity calls are given as the source filed them.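 The calls were made as follows: active = raises KCNQ1 potassium channel current at one or more doses and a concentration response curve can be fitted; inactive = no activation at any dose, or no fittable curve.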

Molecular target: Potassium voltage-gated channel subfamily KQT member 1 (Homo sapiens) (UniProt P51787)
Assay: KCNQ1 potassium current enhancement – automated patch clamp, CHO cells, SAR follow-up (AID 588673)

Chain of Potassium voltage-gated channel subfamily KQT member 1 (Homo sapiens) (P51787 whole entry, looked up): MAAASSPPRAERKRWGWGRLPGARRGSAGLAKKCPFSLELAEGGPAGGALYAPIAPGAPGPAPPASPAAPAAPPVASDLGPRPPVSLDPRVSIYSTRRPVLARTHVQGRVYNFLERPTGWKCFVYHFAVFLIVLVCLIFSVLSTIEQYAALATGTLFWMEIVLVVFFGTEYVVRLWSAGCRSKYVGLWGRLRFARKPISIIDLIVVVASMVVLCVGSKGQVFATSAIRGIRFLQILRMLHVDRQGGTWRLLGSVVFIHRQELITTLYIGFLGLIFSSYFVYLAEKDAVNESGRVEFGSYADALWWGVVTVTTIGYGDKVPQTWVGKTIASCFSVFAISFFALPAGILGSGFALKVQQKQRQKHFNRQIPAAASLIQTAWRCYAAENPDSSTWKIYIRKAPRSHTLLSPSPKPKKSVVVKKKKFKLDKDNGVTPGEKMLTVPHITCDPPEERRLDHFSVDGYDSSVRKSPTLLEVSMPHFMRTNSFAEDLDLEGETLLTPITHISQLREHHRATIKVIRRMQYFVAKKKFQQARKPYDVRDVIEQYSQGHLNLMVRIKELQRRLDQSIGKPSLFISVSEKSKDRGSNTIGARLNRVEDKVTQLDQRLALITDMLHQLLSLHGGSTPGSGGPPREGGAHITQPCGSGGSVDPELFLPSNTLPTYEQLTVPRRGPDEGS

Row | Compound | current activation, percent increase (at 30 µM (top of the series)) | IC50, inhibition of current [nM]
1 | COc1ccc(-c2csc(NC(=O)[C@@H]3CCCCN3S(=O)(=O)c3ccccc3)n2)cc1 | inactive | 
2 | COc1ccc(-c2csc(NC(=O)[C@H]3CCCCN3S(=O)(=O)c3ccccc3)n2)cc1 |  | 1390
3 | COc1ccc(-c2csc(NC(=O)C3CCCCN3S(=O)(=O)c3ccccc3)n2)cc1 (stereo not drawn) |  | 1660
